These results are taken from patent US9359297B2, “Spirolactam derivatives and uses of same” (H. Lundbeck A/S, priority 2009, dated 2016).

Molecules are shown by their SMILES.

The target of this assay is T1, human metabotropic glutamate receptor 5 (hmGluR5) (Homo sapiens, UniProt P41594).
T1 construct: expressed in transfected cells
Kind of assay: Calcium mobilization (FLIPR) assay for negative allosteric modulation, EC80 glutamate, hmGluR5 in HEK 293. The format is cell-based. Conditions: HEK293; hmGluR5, inhibition of EC80 glutamate response; read-out: FLIPR maximum inhibition. Summed up: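 Stably transfected HEK 293 cells, Fluo-4-loaded, stimulated with EC80 glutamate plus test compound in HBSS/20 mM HEPES pH 7.4 with probenecid; FLIPR fluorescence read over 3 min at room temperature. Basal-subtracted maximum fluorescence change fitted by Hill equation; negative modulation seen as concentration-dependent inhibition of the EC80 response.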
For orientation: Calcium assays in cells follow changes in intracellular calcium, usually with a dye or a luminescent sensor.

T1 sequence (P41594 21-1212): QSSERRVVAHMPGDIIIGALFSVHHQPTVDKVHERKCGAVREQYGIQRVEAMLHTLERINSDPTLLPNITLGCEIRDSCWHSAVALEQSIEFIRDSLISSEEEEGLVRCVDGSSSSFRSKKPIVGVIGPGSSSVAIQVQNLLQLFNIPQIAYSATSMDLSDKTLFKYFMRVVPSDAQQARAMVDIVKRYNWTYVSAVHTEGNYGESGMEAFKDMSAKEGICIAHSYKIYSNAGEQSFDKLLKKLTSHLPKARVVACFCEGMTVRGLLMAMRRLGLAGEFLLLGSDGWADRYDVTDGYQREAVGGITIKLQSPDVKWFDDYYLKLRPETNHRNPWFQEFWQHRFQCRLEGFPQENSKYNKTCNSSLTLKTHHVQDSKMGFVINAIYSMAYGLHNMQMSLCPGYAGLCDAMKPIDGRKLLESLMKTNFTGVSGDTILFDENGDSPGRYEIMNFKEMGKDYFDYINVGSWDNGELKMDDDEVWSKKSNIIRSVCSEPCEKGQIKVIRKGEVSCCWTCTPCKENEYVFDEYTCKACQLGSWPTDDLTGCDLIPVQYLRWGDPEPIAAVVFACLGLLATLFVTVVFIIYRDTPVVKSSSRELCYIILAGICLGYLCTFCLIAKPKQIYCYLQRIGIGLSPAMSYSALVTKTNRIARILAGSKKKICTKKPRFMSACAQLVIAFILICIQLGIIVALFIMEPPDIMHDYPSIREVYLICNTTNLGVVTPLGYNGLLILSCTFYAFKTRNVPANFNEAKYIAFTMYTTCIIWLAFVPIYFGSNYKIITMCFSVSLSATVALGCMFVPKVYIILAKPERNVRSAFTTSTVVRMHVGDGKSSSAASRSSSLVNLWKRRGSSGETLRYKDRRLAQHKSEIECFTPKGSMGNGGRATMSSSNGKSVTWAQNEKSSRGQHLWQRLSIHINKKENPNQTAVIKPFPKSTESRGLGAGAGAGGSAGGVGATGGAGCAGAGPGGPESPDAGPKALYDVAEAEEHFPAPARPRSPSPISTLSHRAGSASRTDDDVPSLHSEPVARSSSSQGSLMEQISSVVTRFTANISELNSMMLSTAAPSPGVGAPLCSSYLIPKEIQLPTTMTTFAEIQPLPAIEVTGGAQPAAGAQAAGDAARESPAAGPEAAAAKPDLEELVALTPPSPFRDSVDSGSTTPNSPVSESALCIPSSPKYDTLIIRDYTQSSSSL

Regarding `Cc1cccc(C(=O)N[C@@H]2C[C@@H](O)C[C@@]3(CCN(c4cccc(F)c4)C3=O)C2)n1` (relative stereo) [Example 126, trans-6-Methyl-pyridine-2-carboxylic acid [2-(3-fluoro-phenyl)-9-hydroxy-1-oxo-2-aza-spiro[4.5]dec-7-yl]-amide], the Emax was in the range of 47 to 93%.

With `COc1cccc(N2CC[C@]3(CCC[C@H](NC(=O)c4cccc(F)c4)C3)C2=O)c1` (relative stereo) [Example 130, cis-3-Fluoro--N-[-2-(3-methoxy-phenyl)-1-oxo-2-aza-spiro[4.5]dec-7-yl]-benzamide], the Emax was in the range of 47 to 93%.

In the case of `O=C(N[C@H]1CCC[C@]2(CCN(c3cccc(O)c3)C2=O)C1)c1cccc(F)c1` (relative stereo) [Example 131, cis-3-Fluoro-N-[2-(3-hydroxy-phenyl)-1-oxo-2-aza-spiro[4.5]dec-7-yl]-benzamide], the Emax is 47 to 93%.

Take `COc1ccc(N2CC[C@]3(CCC[C@H](NC(=O)c4cccc(F)c4)C3)C2=O)cc1` (relative stereo) [Example 133]: the Emax lay in the range of 47 to 93%.

Consider `O=C(N[C@H]1CCC[C@]2(CCN(c3cccc(CCCN4CCOCC4)c3)C2=O)C1)c1cccc(F)c1` (relative stereo) [Example 134, cis-3-Fluoro-N-{2-[3-(3-morpholin-4-yl-propyl)-phenyl]-1-oxo-2-aza-spiro[4.5]dec-7-yl}-benzamide], for which the Emax was in the range of 47 to 93%.

`COc1cc(F)cc(N2CC[C@]3(CCC[C@H](NC(=O)c4cccc(F)c4)C3)C2=O)c1` (relative stereo) [Example 135, cis-3-Fluoro-N-[2-(3-fluoro-5-methoxy-phenyl)-1-oxo-2-aza-spiro[4.5]dec-7-yl]-benzamide]: the Emax was in the range of 47 to 93%.

With `O=C(N[C@H]1CCC[C@]2(CCN(c3cccc(OCC(=O)N4CCCC4)c3)C2=O)C1)c1cccc(F)c1` (relative stereo) [Example 136, cis-3-Fluoro-N-{1-oxo-2-[3-(2-oxo-2-pyrrolidin-1-yl-ethoxy)-phenyl]-2-aza-spiro[4.5]dec-7-yl}-benzamide], the Emax fell in the range of 47 to 93%.

Turning to `O=C(N[C@H]1CCC[C@]2(CCN(c3cccc(F)c3)C2=O)C1)c1nccs1` (relative stereo) [Example 137, cis-Thiazole-2-carboxylic acid [2-(3-fluoro-phenyl)-1-oxo-2-aza-spiro[4.5]dec-7-yl]-amide], the Emax lay within 47 to 93%.

For `CN(C)c1ccc(N2CC[C@]3(CCC[C@H](NC(=O)c4cccc(F)c4)C3)C2=O)cc1` (relative stereo) [Example 138, cis-N-[2-(4-Dimethylamino-phenyl)-1-oxo-2-aza-spiro[4.5]dec-7-yl]-3-fluoro-benzamide], the Emax lay in the range of 47 to 93%.

Take `O=C(N[C@H]1CCC[C@]2(CCN(c3nccs3)C2=O)C1)c1cccc(F)c1` (relative stereo) [Example 139, cis-3-Fluoro-N-(1-oxo-2-thiazol-2-yl-2-aza-spiro[4.5]dec-7-yl)-benzamide]: the Emax is 47 to 93%.

Turning to `Cc1nccc(N2CC[C@]3(CCC[C@H](NC(=O)c4nccs4)C3)C2=O)n1` (relative stereo) [Example 140], the Emax was in the range of 47 to 93%.

In the case of `COc1cc(F)cc(N2CC[C@@]3(CCC[C@@H](NC(=O)c4ccnc(C)n4)C3)C2=O)c1` (relative stereo) [Example 141, cis-2-Methyl-pyrimidine-4-carboxylic acid [2-(3-fluoro-5-methoxy-phenyl)-1-oxo-2-aza-spiro[4.5]dec-7-yl]-amide], the Emax is 47 to 93%.

For the compound `N#Cc1cc(F)cc(N2CC[C@@]3(CCC[C@@H](NC(=O)c4cccc(F)c4)C3)C2=O)c1` (relative stereo) [Example 142, cis-N-[2-(3-Cyano-5-fluoro-phenyl)-1-oxo-2-aza-spiro[4.5]dec-7-yl]-3-fluoro-benzamide], the Emax was in the range of 47 to 93%.

In the case of `O=C(N[C@@H]1CCC[C@@]2(CCN(c3cc(F)cc(F)c3)C2=O)C1)c1nccs1` (relative stereo) [Example 143, cis-Thiazole-2-carboxylic acid [2-(3,5-difluoro-phenyl)-1-oxo-2-aza-spiro[4.5]dec-7-yl]-amide], the Emax lay within 47 to 93%.

For the compound `Cc1nc(C(=O)N[C@@H]2CCC[C@@]3(CCN(c4cc(F)cc(F)c4)C3=O)C2)cs1` (relative stereo) [Example 144, cis-2-Methyl-thiazole-4-carboxylic acid [2-(3,5-difluoro-phenyl)-1-oxo-2-aza-spiro[4.5]dec-7-yl]-amide], the Emax lay within 47 to 93%.

Turning to `CCCCC(=O)N[C@@H]1CCC[C@@]2(CCN(c3cc(F)cc(F)c3)C2=O)C1` (relative stereo) [Example 145, cis-Pentanoic acid [2-(3,5-difluoro-phenyl)-1-oxo-2-aza-spiro[4.5]dec-7-yl]-amide], the Emax lay in the range of 47 to 93%.

On to `CCCC(=O)N[C@@H]1CCC[C@@]2(CCN(c3cc(F)cc(F)c3)C2=O)C1` (relative stereo) [Example 146, cis-N-[2-(3,5-Difluoro-phenyl)-1-oxo-2-aza-spiro[4.5]dec-7-yl]-butyramide], for which the Emax lay in the range of 47 to 93%.

On to `Cc1nccc(N2CC[C@]3(CCC[C@H](NC(=O)c4ccc(F)cn4)C3)C2=O)n1` (relative stereo) [Example 149], for which the Emax lay in the range of 47 to 93%.

Regarding `O=C(N[C@H]1CCC[C@]2(CCN(c3ccnc(C(F)(F)F)n3)C2=O)C1)c1cccc(F)c1` (relative stereo) [Example 150, cis-3-Fluoro-N-[1-oxo-2-(2-trifluoromethyl-pyrimidin-4-yl)-2-aza-spiro[4.5]dec-7-yl]-benzamide], the Emax was 47 to 93%.

As for `Cc1cc(N2CC[C@]3(CCC[C@H](NC(=O)c4cccc(F)c4)C3)C2=O)nc(C)n1` (relative stereo) [Example 151, cis-N-[2-(2,6-Dimethyl-pyrimidin-4-yl)-1-oxo-2-aza-spiro[4.5]dec-7-yl]-3-fluoro-benzamide], the Emax was in the range of 47 to 93%.

Regarding `Cc1cccc(C(=O)N[C@H]2CCC[C@]3(CCN(C)C3=O)C2)n1` (relative stereo) [Example 153], the Emax is 47 to 93%.

In the case of `CCN1CC[C@]2(CCC[C@H](NC(=O)c3cccc(C)n3)C2)C1=O` (relative stereo) [Example 154], the Emax lay within 47 to 93%.

For `CCCN1CC[C@]2(CCC[C@H](NC(=O)c3cccc(C)n3)C2)C1=O` (relative stereo) [Example 155], the Emax lay within 47 to 93%.

`Cc1cccc(C(=O)N[C@@H]2CCC[C@@]3(CCN(c4cc(F)cc(F)c4)C3=O)C2)n1` (single isomer, unassigned) [Example 67]: the Emax lay within 73 to 95%.

Regarding `Cc1cccc(C(=O)N[C@H]2CCC[C@]3(CCN(c4cc(F)cc(F)c4)C3=O)C2)n1` (single isomer, unassigned) [Example 81], the Emax lay in the range of 73 to 95%.

For `O=C(N[C@@H]1CC(F)(F)C[C@@]2(CCN(c3cccc(F)c3)C2=O)C1)c1ccccn1` (single isomer, unassigned) [Example 98], the Emax is 88 to 93%.

On to `O=C(N[C@H]1CC(F)(F)C[C@]2(CCN(c3cccc(F)c3)C2=O)C1)c1ccccn1` (single isomer, unassigned) [Example 99], for which the Emax lay within 88 to 93%.

Regarding `O=C1c2ccccc2CN1C1CCCC2(CCN(c3cccc(Cl)c3)C2=O)C1` (single isomer, unassigned) [Example 100, cis-2-[2-(3-chloro-phenyl)-1-oxo-2-aza-spiro[4.5]dec-7-yl]-2,3-dihydro-isoindol-1-one], the Emax lay in the range of 47 to 93%.

As to `O=C(N[C@H]1CC(F)(F)C[C@@]2(CCN(c3cccc(F)c3)C2=O)C1)c1ccccn1` (single isomer, unassigned) [Example 101], the Emax lay in the range of 47 to 93%.

Regarding `O=C(N[C@@H]1CC(F)(F)C[C@]2(CCN(c3cccc(F)c3)C2=O)C1)c1ccccn1` (single isomer, unassigned) [Example 102], the Emax is 47 to 93%.

On to `Cc1nccc(C(=O)N[C@H]2CC(F)(F)C[C@]3(CCN(c4cccc(F)c4)C3=O)C2)n1` (single isomer, unassigned) [Example 103], for which the Emax is 47 to 93%.

In the case of `Cc1nccc(C(=O)N[C@@H]2CC(F)(F)C[C@@]3(CCN(c4cccc(F)c4)C3=O)C2)n1` (single isomer, unassigned) [Example 104], the Emax fell in the range of 47 to 93%.

On to `O=C(N[C@H]1CC(F)(F)C[C@]2(CCN(c3cc(F)cc(F)c3)C2=O)C1)c1ccccn1` (single isomer, unassigned) [Example 113], for which the Emax is 47 to 93%.

As to `O=C(N[C@@H]1CC(F)(F)C[C@@]2(CCN(c3cc(F)cc(F)c3)C2=O)C1)c1ccccn1` (single isomer, unassigned) [Example 114], the Emax was in the range of 47 to 93%.

In the case of `Cc1nccc(C(=O)N[C@@H]2C[C@@](C)(O)C[C@@]3(CCN(c4cc(F)cc(F)c4)C3=O)C2)n1` (single isomer, unassigned) [Example 118, trans-2-Methyl-pyrimidine-4-carboxylic acid [2-(3,5-difluoro-phenyl)-9-hydroxy-9-methyl-1-oxo-2-aza-spiro[4.5]dec-7-yl]-amide], the Emax lay within 47 to 93%.

As for `Cc1nccc(C(=O)N[C@@H]2C[C@](C)(O)C[C@@]3(CCN(c4cc(F)cc(F)c4)C3=O)C2)n1` (single isomer, unassigned) [Example 119, cis-2-Methyl-pyrimidine-4-carboxylic acid [2-(3,5-difluoro-phenyl)-9-hydroxy-9-methyl-1-oxo-2-aza-spiro[4.5]dec-7-yl]-amide], the Emax is 47 to 93%.

On to `Cc1nccc(N2CC[C@@]3(C[C@@H](NC(=O)c4cccc(F)c4)CC(F)(F)C3)C2=O)n1` (single isomer, unassigned) [Example 120], for which the Emax was 47 to 93%.

Take `Cc1nccc(N2CC[C@]3(C[C@H](NC(=O)c4cccc(F)c4)CC(F)(F)C3)C2=O)n1` (single isomer, unassigned) [Example 121]: the Emax fell in the range of 47 to 93%.

On to `Cc1cccc(C(=O)N[C@H]2CC(F)(F)C[C@]3(CCN(c4ccc(F)cn4)C3=O)C2)n1` (single isomer, unassigned) [Example 127], for which the Emax lay in the range of 47 to 93%.
